In patent US20260347337A1, “MICROBIOCIDAL PYRAZOLE DERIVATIVES” (priority 2022, published 2026):

Key:
[1] = system: Monographella nivalis (Microdochium nivale); experiment: Monographella nivalis (Microdochium nivale)/liquid culture (foot rot cereals), inhibition of growth; assay type: cell-based; details: liquid culture, PDB, 24° C., 4-5 days after application, read-out: control of Monographella nivalis (inhibition of growth vs untreated)
Protocol: Example B8: Monographella nivalis (Microdochium nivale)/Liquid Culture (Foot Rot Cereals)
(§1) Conidia of the fungus from cryogenic storage are directly mixed into nutrient broth (PDB potato dextrose broth). After placing a (DMSO) solution of test compound into a microtiter plate (96-well format), the nutrient broth containing the fungal spores is added. The test plates are incubated at 24° C. and the inhibition of growth is determined photometrically 4-5 days after application.

[2] = system: Phaeosphaeria nodorum (Septoria nodorum); experiment: Phaeosphaeria nodorum (Septoria nodorum)/wheat/leaf disc preventative (glume blotch); assay type: in vivo; details: 200 ppm, wheat leaf segments cv. Kanzler, inoculated 2 days after application, assessed 5-7 days after application
Protocol: Example B7: Phaeosphaeria nodorum (Septoria nodorum)/Wheat/Leaf Disc Preventative (Glume Blotch)
(§2) Wheat leaf segments cv. Kanzler are placed on agar in a multiwell plate (24-well format) and sprayed with the formulated test compound diluted in water. The leaf disks are inoculated with a spore suspension of the fungus 2 days after application. The inoculated test leaf disks are incubated at 20° C. and 75% rh under a light regime of 12 h light/12 h darkness in a climate cabinet and the activity of a compound is assessed as percent disease control compared to untreated when an appropriate level of disease damage appears in untreated check leaf disks (5-7 days after application).

[3] = system: Pyrenophora teres; experiment: Pyrenophora teres/barley/leaf disc preventative (net blotch); assay type: in vivo; details: 200 ppm, barley leaf segments cv. Hasso, inoculated 2 days after application, assessed 5-7 days after application
Protocol: Example B10: Pyrenophora teres/Barley/Leaf Disc Preventative (Net Blotch)
as §2, with “Barley” for “Wheat”, “Hasso” for “Kanzler”, “segments” for “disks”, “inoculated” for “inoculated test”, “65%” for “75%”, “as” for “as percent”

[4] = system: Mycosphaerella graminicola (Septoria tritici); experiment: Mycosphaerella graminicola (Septoria tritici)/liquid culture (Septoria blotch), inhibition of growth; assay type: cell-based; details: Zymoseptoria tritici, liquid culture, PDB, 24° C., 4-5 days after application, read-out: control of Mycosphaerella graminicola (inhibition of growth vs untreated)
Protocol: Example B12: Mycosphaerella graminicola (Septoria tritici)/Liquid Culture (Septoria Blotch)
as §1

[5] = system: Glomerella lagenarium (Colletotrichum lagenarium); experiment: Glomerella lagenarium (Colletotrichum lagenarium)/liquid culture (anthracnose), inhibition of growth; assay type: cell-based; details: Colletotrichum orbiculare, liquid culture, PDB, 24° C., 3-4 days after application, read-out: control of Glomerella lagenarium (inhibition of growth vs untreated)
Protocol: Example B3: Glomerella lagenarium (Colletotrichum lagenarium)/Liquid Culture (Anthracnose)
as §1, with “measured” for “determined”, “3-4” for “4-5”

[6] = system: Blumeria graminis f. sp. tritici (Erysiphe graminis f. sp. tritici); experiment: Blumeria graminis f. sp. tritici/wheat/leaf disc preventative (powdery mildew on wheat); assay type: in vivo; details: 200 ppm, wheat leaf segments cv. Kanzler, inoculated 1 day after application, assessed 6-8 days after application
Protocol: Example B4: Blumeria graminis f. Sp. Tritici (Erysiphe graminis f. Sp. Tritici)/Wheat/Leaf Disc Preventative (Powdery Mildew on Wheat)
Wheat leaf segments cv. Kanzler are placed on agar in a multiwell plate (24-well format) and sprayed with the formulated test compound diluted in water. The leaf disks are inoculated by shaking powdery mildew infected plants above the test plates 1 day after application. The inoculated leaf disks are incubated at 20° C. and 60% rh under a light regime of 24 h darkness followed by 12 h light/12 h darkness in a climate chamber and the activity of a compound is assessed as percent disease control compared to untreated when an appropriate level of disease damage appears on untreated check leaf segments (6-8 days after application).

[7] = system: Fusarium culmorum; experiment: microbe, parasite or virus in culture; assay type: cell-based; details: read-out: control of Fusarium culmorum (inhibition of growth vs untreated)
[8] = system: Mycosphaerella arachidis (Cercospora arachidicola); experiment: Mycosphaerella arachidis (Cercospora arachidicola)/liquid culture (early leaf spot), inhibition of growth; assay type: cell-based; details: liquid culture, PDB, 24° C., 4-5 days after application, read-out: control of Mycosphaerella arachidis (inhibition of growth vs untreated)
Protocol: Example B9: Mycosphaerella arachidis (Cercospora arachidicola)/Liquid Culture (Early Leaf Spot)
as §1

[9] = system: Alternaria solani; experiment: Alternaria solani/tomato/leaf disc (early blight); assay type: in vivo; details: 200 ppm; tomato leaf disks cv. Baby; inoculated 2 days after application; assessed 5-7 days after application
Protocol: Example B1: Alternaria solani/Tomato/Leaf Disc (Early Blight)
Tomato leaf disks cv. Baby are placed on agar in multiwell plates (24-well format) and sprayed with the formulated test compound diluted in water. The leaf disks are inoculated with a spore suspension of the fungus 2 days after application. The inoculated leaf disks are incubated at 23° C./21° C. (day/night) and 80% rh under a light regime of 12/12 h (light/dark) in a climate cabinet and the activity of a compound is assessed as percent disease control compared to untreated when an appropriate level of disease damage appears on untreated check disk leaf disks (5-7 days after application).

[10] = system: Botryotinia fuckeliana (Botrytis cinerea); experiment: Botryotinia fuckeliana (Botrytis cinerea)/liquid culture (gray mould), inhibition of growth; assay type: cell-based; details: liquid culture, Vogels broth, 24° C., 3-4 days after application, read-out: control of Botryotinia fuckeliana (inhibition of growth vs untreated)
Protocol: Example B2: Botryotinia fuckeliana (Botrytis cinerea)/Liquid Culture (Gray Mould)
as §1, with “(Vogels” for “(PDB potato dextrose”, “3-4” for “4-5”

[11] = system: Plasmopara viticola; assay type: in vivo; details: 200 ppm; grape vine leaf disks; preventative, inoculated 1 day after application; assessed 6-8 days after application
[12] = system: Phytophthora infestans; assay type: in vivo; details: 200 ppm; tomato leaf disks; preventative, inoculated 1 day after application; assessed 5-7 days after application
[13] = system: Sclerotinia sclerotiorum; experiment: Sclerotinia sclerotiorum/liquid culture (cottony rot), inhibition of growth; assay type: cell-based; details: liquid culture (mycelia fragments), PDB, 24° C., 3-4 days after application, read-out: control of Sclerotinia sclerotiorum (inhibition of growth vs untreated)
Protocol: Example B11: Sclerotinia sclerotiorum/Liquid Culture (Cottony Rot)
as §1, with “Mycelia fragments of a newly grown liquid culture” for “Conidia”, “fungus” for “fungus from cryogenic storage”, “format)” for “format),”, “material” for “spores”, “3-4” for “4-5”

[14] = system: Fusarium culmorum; assay type: in vivo; details: 200 ppm; wheat spikelets cv. Monsun; preventative, inoculated 1 day after application; assessed 6-8 days after application
[15] = system: Gibberella zeae (Fusarium graminearum); assay type: in vivo; details: 200 ppm; wheat spikelets cv. Monsun; preventative, inoculated 1 day after application; assessed 6-8 days after application

Compound	inhibition of growth at 20 ppm [1] [%]	control of Phaeosphaeria nodorum (percent disease control compared to untreated) [2]	control of Pyrenophora teres (disease control compared to untreated) [3]	inhibition of growth at 20 ppm [4] [%]	inhibition of growth at 20 ppm [5] [%]	control of Blumeria graminis f. sp. tritici (percent disease control compared to untreated) [6]	inhibition of growth at 20 ppm [7] [%]	inhibition of growth at 20 ppm [8] [%]	control of Alternaria solani (percent disease control compared to untreated) [9]	inhibition of growth at 20 ppm [10] [%]	control of Plasmopara viticola (percent disease control compared to untreated) [11]	control of Phytophthora infestans (percent disease control compared to untreated) [12]	inhibition of growth at 20 ppm [13] [%]	control of Fusarium culmorum (percent disease control compared to untreated) [14]	control of Gibberella zeae (percent disease control compared to untreated) [15]
Cn1cc(C(C)(CNC(=O)c2cn(-c3ccc(F)cc3F)nn2)c2cccc(Cl)n2)cn1 (stereo not shown) [Compound P-1, N-[2-(6-chloro-2-pyridyl)-2-(1-methylpyrazol-4-yl)propyl]-1-(2,4-difluorophenyl)triazole-4-carboxamide]	≥ 80	at least 80%	at least 80%	≥ 80	≥ 80	at least 80%	≥ 80	≥ 80	at least 80%	≥ 80	at least 80%				
Cn1cc(C(C)(CNC(=O)c2cnn(-c3ccc(F)cc3F)n2)c2cccc(C#N)n2)cn1 (stereo not shown) [Compound P-2, N-[2-(6-cyano-2-pyridyl)-2-(1-methylpyrazol-4-yl)propyl]-2-(2,4-difluorophenyl)triazole-4-carboxamide]						at least 80%					at least 80%	at least 80%			
Cn1cc(C(C)(CNC(=O)c2cnn(-c3ccc(F)cc3F)n2)c2cccc(Cl)n2)cn1 (stereo not shown) [Compound P-3, N-[2-(6-chloro-2-pyridyl)-2-(1-methylpyrazol-4-yl)propyl]-2-(2,4-difluorophenyl)triazole-4-carboxamide]			at least 80%						at least 80%						
Cn1cc(C(C)(CNC(=O)c2nnn(-c3ccc(F)cc3F)n2)c2cccc(C#N)n2)cn1 (stereo not shown) [Compound P-5, N-[2-(6-cyano-2-pyridyl)-2-(1-methylpyrazol-4-yl)propyl]-2-(2,4-difluorophenyl)tetrazole-5-carboxamide]	≥ 80	at least 80%	at least 80%	≥ 80	≥ 80	at least 80%		≥ 80	at least 80%	≥ 80			≥ 80		
Cn1cc(C(C)(CNC(=O)c2nnn(-c3ccc(F)cc3F)n2)c2cccc(Cl)n2)cn1 (stereo not shown) [Compound P-6, N-[2-(6-chloro-2-pyridyl)-2-(1-methylpyrazol-4-yl)propyl]-2-(2,4-difluorophenyl)tetrazole-5-carboxamide]	≥ 80	at least 80%	at least 80%	≥ 80	≥ 80	at least 80%	≥ 80	≥ 80	at least 80%	≥ 80			≥ 80	at least 80%	
Cn1cc(C(C)(CNC(=O)c2cn(-c3ncc(F)cc3F)nn2)c2cccc(Cl)n2)cn1 (stereo not shown) [Compound P-7, N-[2-(6-chloro-2-pyridyl)-2-(1-methylpyrazol-4-yl)propyl]-1-(3,5-difluoro-2-pyridyl)triazole-4-carboxamide]	≥ 80	at least 80%	at least 80%	≥ 80	≥ 80	at least 80%	≥ 80	≥ 80	at least 80%	≥ 80					at least 80%
Cn1cc(C(C)(CNC(=O)c2cn(-c3ccc(F)cc3F)nn2)c2cccc(Br)n2)cn1 (stereo not shown) [Compound P-8, N-[2-(6-bromo-2-pyridyl)-2-(1-methylpyrazol-4-yl)propyl]-1-(2,4-difluorophenyl)triazole-4-carboxamide]	≥ 80	at least 80%	at least 80%	≥ 80	≥ 80	at least 80%	≥ 80	≥ 80	at least 80%	≥ 80					
Cn1cc(C(C)(CNC(=O)c2cn(-c3ccc(F)cc3F)nn2)c2cccc(C#N)n2)cn1 (stereo not shown) [Compound P-9, N-[2-(6-cyano-2-pyridyl)-2-(1-methylpyrazol-4-yl)propyl]-1-(2,4-difluorophenyl)triazole-4-carboxamide]	≥ 80	at least 80%	at least 80%	≥ 80		at least 80%									
